Experimental data: DBAASP
Converted amounts (≈) assume the structure as drawn.

Legend:
Assay in all cases: ≥ marks a high value that may be exact or a test limit, other limits are often not marked, values filed in µg/mL are converted to µM
[1] = tested on: Listeria monocytogenes DBFIQ LM3
[2] = tested on: Staphylococcus aureus DBFIQ S21
[3] = tested on: Staphylococcus aureus M6784
[4] = tested on: Enterococcus gallinarum M2723
[5] = tested on: Enterococcus faecium M2304
[6] = tested on: Klebsiella pneumoniae PFAV 3
[7] = tested on: Enterococcus faecalis ATCC 51299
Escherichia coli M9209 = tested on: Escherichia coli M9209
[8] = tested on: Staphylococcus epidermidis M2923
[9] = tested on: Klebsiella pneumoniae M9375
[10] = tested on: Staphylococcus saprophyticus M4070
Acinetobacter sp. M9665 = tested on: Acinetobacter sp. M9665
[11] = tested on: Enterococcus faecalis M6983
Acinetobacter sp. M13523 = tested on: Acinetobacter sp. M13523
Staphylococcus warneri = tested on: Staphylococcus warneri
[12] = tested on: Enterococcus faecalis M4899
[13] = tested on: Escherichia coli ATCC 25922
[14] = tested on: Pseudomonas aeruginosa M11005
[15] = tested on: Enterococcus faecalis ATCC 29212
Escherichia coli M7859 = tested on: Escherichia coli M7859
[16] = tested on: Staphylococcus epidermidis M2921
Escherichia coli M5306 = tested on: Escherichia coli M5306
[17] = tested on: Staphylococcus aureus P33
Acinetobacter sp. M5949 = tested on: Acinetobacter sp. M5949
Escherichia coli M9884 = tested on: Escherichia coli M9884
[18] = tested on: Pseudomonas aeruginosa ATCC 27853
[19] = tested on: Klebsiella pneumoniae M5825
Acinetobacter sp. M9013 = tested on: Acinetobacter sp. M9013
[20] = tested on: Staphylococcus hominis M2967
[21] = tested on: Klebsiella pneumoniae M9491
[22] = tested on: Enterococcus faecium PZAP 95
[23] = tested on: Staphylococcus haemolyticus M2976
[24] = tested on: Klebsiella pneumoniae M11245
[25] = tested on: Staphylococcus aureus ATCC 25923
[26] = tested on: Staphylococcus hominis M2973
Staphylococcus cohnii = tested on: Staphylococcus cohnii
[27] = tested on: Pseudomonas aeruginosa PACO12
[28] = tested on: Escherichia coli ATCC 11219
[29] = tested on: Staphylococcus aureus ATCC 6538
[30] = tested on: Klebsiella pneumoniae ATCC 10031
[31] = tested on: Salmonella enterica subsp. enterica serovar Typhimurium ATCC 14028
[32] = tested on: Pseudomonas aeruginosa ATCC 13388
[33] = tested on: Staphylococcus aureus ATCC 502A
[34] = tested on: Pseudomonas sp. ATCC 15915
[35] = tested on: Acinetobacter baumannii ATCC 15308
[36] = tested on: Micrococcus luteus ATCC 7468
Escherichia coli BL2 = tested on: Escherichia coli BL2
[37] = tested on: Enterococcus faecium ATCC 19434
[38] = tested on: Corynebacterium glutamicum CGMCC 1.1886
[39] = tested on: Staphylococcus aureus CGMCC 1.0363
[40] = tested on: Vibrio alginolyticus CGMCC 1.1833
[41] = tested on: Vibrio parahaemolyticus CGMCC 1.1615
[42] = tested on: Aeromonas hydrophila CGMCC 1.0927

CC[C@H](C)[C@H](NC(=O)[C@H](C)NC(=O)[C@@H](NC(=O)[C@H](C)NC(=O)CNC(=O)[C@H](CCSC)NC(=O)[C@H](CCC(N)=O)NC(=O)[C@H](CC(C)C)NC(=O)[C@H](CO)NC(=O)[C@@H](N)Cc1ccc(O)cc1)[C@@H](C)O)C(=O)N[C@@H](CCCCN)C(=O)N[C@@H](CCC(N)=O)C(=O)N[C@H](C(=O)N[C@@H](CCCCN)C(=O)N[C@@H](CCCCN)C(=O)N[C@@H](CC(C)C)C(=O)N[C@@H](Cc1ccccc1)C(=O)N[C@@H](CCCCN)C(=O)N[C@@H](CCCCN)C(=O)N[C@@H](CCCCN)C(=O)NCC(=O)NCC(N)=O)C(C)C [YSLQMGATAIKQVKKLFKKKGG]
MIC [1]: 1.7 µM (≈ 4.12 µg/mL) | MIC [2]: 6.6 µM (≈ 16 µg/mL)

CC[C@H](C)[C@H](NC(=O)[C@H](CCCN=C(N)N)NC(=O)[C@H](CCC(N)=O)NC(=O)[C@@H](NC(=O)[C@@H](NC(=O)[C@@H](N)CCCN=C(N)N)[C@@H](C)CC)C(C)C)C(=O)N[C@@H](CCCCN)C(=O)N[C@@H](CCCCN)C(=O)N[C@@H](Cc1c[nH]c2ccccc12)C(=O)N[C@@H](CC(C)C)C(=O)N[C@@H](CC(C)C)C(=O)N[C@@H](CCCCN)C(=O)N[C@@H](Cc1c[nH]c2ccccc12)C(=O)N[C@@H](CCCCN)C(=O)N[C@@H](CCCCN)C(=O)N[C@@H](CC(C)C)C(=O)NCC(=O)N[C@@H](Cc1ccc(O)cc1)C(N)=O [RIVQRIKKWLLKWKKLGY]
MIC [3]: 13.6 µM (≈ 32 µg/mL) | MIC [4]: 6.79 µM (≈ 16 µg/mL) | MIC [5]: 3.39 µM (≈ 8 µg/mL) | MIC [6]: ≥ 54.3 µM | MIC [7]: ≥ 109 µM | MIC (Escherichia coli M9209): ≥ 54.3 µM | MIC [8]: 6.79 µM (≈ 16 µg/mL) | MIC [9]: 6.79 µM (≈ 16 µg/mL) | MIC [10]: 3.39 µM (≈ 8 µg/mL) | MIC (Acinetobacter sp. M9665): ≥ 54.3 µM | MIC [11]: ≥ 54.3 µM | MIC (Acinetobacter sp. M13523): 27.2 µM (≈ 64 µg/mL) | MIC (Staphylococcus warneri): 3.39 µM (≈ 8 µg/mL) | MIC [12]: ≥ 109 µM | MIC [13]: 13.6 µM (≈ 32 µg/mL) | MIC [14]: ≥ 54.3 µM | MIC [15]: 54.3 µM (≈ 128 µg/mL) | MIC (Escherichia coli M7859): 6.79 µM (≈ 16 µg/mL) | MIC [16]: 3.39 µM (≈ 8 µg/mL) | MIC (Escherichia coli M5306): 27.2 µM (≈ 64 µg/mL) | MIC [17]: 27.2 µM (≈ 64 µg/mL) | MIC (Acinetobacter sp. M5949): ≥ 109 µM | MIC (Escherichia coli M9884): 13.6 µM (≈ 32 µg/mL) | MIC [18]: 27.2 µM (≈ 64 µg/mL) | MIC [19]: 13.6 µM (≈ 32 µg/mL) | MIC (Acinetobacter sp. M9013): 13.6 µM (≈ 32 µg/mL) | MIC [20]: 3.39 µM (≈ 8 µg/mL) | MIC [21]: 27.2 µM (≈ 64 µg/mL) | MIC [22]: 6.79 µM (≈ 16 µg/mL) | MIC [23]: 3.39 µM (≈ 8 µg/mL) | MIC [24]: 3.39 µM (≈ 8 µg/mL) | MIC [25]: 13.6 µM (≈ 32 µg/mL) | MIC [26]: 1.7 µM (≈ 4 µg/mL) | MIC (Staphylococcus cohnii): 3.39 µM (≈ 8 µg/mL) | MIC [27]: 27.2 µM (≈ 64 µg/mL)

CC[C@H](C)[C@H](NC(=O)CN)C(=O)N[C@@H](CCCN=C(N)N)C(=O)N[C@@H](CCCN=C(N)N)C(=O)N[C@H](C(=O)N[C@@H](CC(C)C)C(=O)N[C@@H](CCCN=C(N)N)C(=O)N[C@@H](Cc1ccc(O)cc1)C(=O)NCC(=O)N[C@@H](CCCN=C(N)N)C(=O)N[C@@H](CCCN=C(N)N)C(=O)N[C@@H](CO)C(N)=O)[C@@H](C)CC [GIRRILRYGRRS]
MIC [28]: 3 µM (≈ 4.51 µg/mL) | MIC [29]: 10 µM (≈ 15 µg/mL) | MIC [30]: 5 µM (≈ 7.51 µg/mL) | MIC [31]: 10 µM (≈ 15 µg/mL) | MIC [32]: 20 µM (≈ 30 µg/mL)

CC[C@H](C)[C@H](NC(=O)[C@H](C)NC(=O)[C@H](CCCN=C(N)N)NC(=O)[C@H](CCSC)NC(=O)[C@H](C)NC(=O)[C@@H](NC(=O)[C@@H](N)[C@@H](C)O)[C@@H](C)CC)C(=O)N[C@@H](CC(N)=O)C(=O)N[C@@H](CC(N)=O)C(=O)N[C@@H](Cc1ccc(O)cc1)C(=O)N[C@@H](CCCN=C(N)N)C(=O)N[C@@H](Cc1c[nH]c2ccccc12)C(=O)N[C@@H](CCCN=C(N)N)C(=O)N[C@@H](CO)C(=O)N[C@@H](CCCCN)C(=O)N[C@@H](CC(N)=O)C(=O)N[C@@H](CCC(N)=O)C(=O)N[C@@H](CC(N)=O)C(=O)N[C@H](C(=O)N[C@@H](Cc1ccccc1)C(=O)N[C@@H](CC(C)C)C(=O)N[C@@H](CCCN=C(N)N)C(=O)O)[C@@H](C)O [TIAMRAINNYRWRSKNQNTFLR]
MIC [33]: 1.5 µM (≈ 4.13 µg/mL) | MIC [34]: 7 µM (≈ 19.3 µg/mL) | MIC [35]: 1.1 µM (≈ 3.03 µg/mL) | MIC [36]: 7 µM (≈ 19.3 µg/mL) | MIC (Escherichia coli BL2): 7 µM (≈ 19.3 µg/mL) | MIC [37]: 7 µM (≈ 19.3 µg/mL)

CSCC[C@H](NC(=O)[C@H](CO)NC(=O)[C@H](CC(C)C)NC(=O)[C@H](Cc1cnc[nH]1)NC(=O)[C@H](CO)NC(=O)[C@@H](N)CCC(N)=O)C(=O)N[C@H]1CSSC[C@@H](C(=O)N[C@@H](CCCN=C(N)N)C(=O)N[C@@H](Cc2ccccc2)C(=O)O)NC(=O)[C@@H]2CSSC[C@@H]3NC(=O)[C@@H]4CSSC[C@H](NC(=O)[C@H](C(C)C)NC(=O)[C@H](CO)NC1=O)C(=O)N[C@@H](CSSC[C@H](NC(=O)CNC(=O)[C@H](CCCCN)NC(=O)[C@H](Cc1ccc(O)cc1)NC(=O)[C@H](CC(N)=O)NC(=O)[C@H](CCCCN)NC3=O)C(=O)NCC(=O)N[C@@H](Cc1ccccc1)C(=O)N2)C(=O)N[C@@H](CC(N)=O)C(=O)N4 [QSHLSMCSVCCNCCKNYKGCGFCCRF]
MIC [38]: 12 µM (≈ 35 µg/mL) | MIC [39]: 12 µM (≈ 35 µg/mL) | MIC [13]: 24 µM (≈ 70 µg/mL) | MIC [40]: ≥ 48 µM | MIC [41]: ≥ 48 µM | MIC [42]: 12 µM (≈ 35 µg/mL)
